{
  "source": "BindingDB's records for doi:10.1021/bi00407a006",
  "about": "(Enscp, 1988)",
  "data": [
    {"molecular_target": "T1, Glutamine--fructose-6-phosphate aminotransferase [isomerizing] (Escherichia coli (strain K12), UniProt P17169)", "T1 sequence (P17169 whole entry)": "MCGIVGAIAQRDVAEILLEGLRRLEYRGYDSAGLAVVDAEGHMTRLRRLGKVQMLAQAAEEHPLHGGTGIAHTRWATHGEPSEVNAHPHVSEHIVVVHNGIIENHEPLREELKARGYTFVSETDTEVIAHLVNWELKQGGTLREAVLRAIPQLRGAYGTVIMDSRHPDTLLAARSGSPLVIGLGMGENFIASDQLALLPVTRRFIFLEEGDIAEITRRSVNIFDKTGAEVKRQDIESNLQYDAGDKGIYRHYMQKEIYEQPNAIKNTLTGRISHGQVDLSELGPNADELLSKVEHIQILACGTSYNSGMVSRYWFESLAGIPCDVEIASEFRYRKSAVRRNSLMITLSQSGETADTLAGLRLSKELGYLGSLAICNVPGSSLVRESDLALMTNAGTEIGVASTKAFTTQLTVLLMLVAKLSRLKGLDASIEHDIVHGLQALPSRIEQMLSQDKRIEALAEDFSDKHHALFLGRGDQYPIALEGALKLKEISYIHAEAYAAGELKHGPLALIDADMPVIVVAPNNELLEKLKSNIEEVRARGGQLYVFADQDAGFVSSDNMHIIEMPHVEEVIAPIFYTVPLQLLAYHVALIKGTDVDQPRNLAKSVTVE", "units": {"Ki": "nM"}, "values": [
      {"smiles": "COC(=O)/C=C/C(=O)NC[C@H](N)C(=O)O", "note": "[(2S)-2-azaniumyl-3-[[(E)-4-methoxy-4-oxobut-2-enoyl]amino]propanoate]", "Ki": 350},
      {"smiles": "N[C@@H](CNC(=O)/C=C/C(=O)O)C(=O)O", "note": "[(E)-4-[[(2S)-2-azaniumyl-2-carboxylatoethyl]amino]-4-oxobut-2-enoate]", "Ki": 55100},
      {"smiles": "N#[N+][CH-]C(=O)CC[C@H](N)C(=O)NCC(=O)O", "note": "[(Z,5S)-5-amino-6-(carboxymethylamino)-1-diazonio-6-oxohex-1-en-2-olate]", "Ki": 1400}
    ]}
  ]
}
